Results taken from ChEMBL document CHEMBL4840301, “Homophymamide A, Heterodetic Cyclic Tetrapeptide from a Homophymia sp. Marine Sponge: A Cautionary Note on Configurational Assignment of Peptides That Contain a Ureido Linkage” (J Nat Prod, 2021).

Target: T1, Carboxypeptidase B (Sus scrofa, UniProt P09955)
T1 sequence (P09955 whole entry): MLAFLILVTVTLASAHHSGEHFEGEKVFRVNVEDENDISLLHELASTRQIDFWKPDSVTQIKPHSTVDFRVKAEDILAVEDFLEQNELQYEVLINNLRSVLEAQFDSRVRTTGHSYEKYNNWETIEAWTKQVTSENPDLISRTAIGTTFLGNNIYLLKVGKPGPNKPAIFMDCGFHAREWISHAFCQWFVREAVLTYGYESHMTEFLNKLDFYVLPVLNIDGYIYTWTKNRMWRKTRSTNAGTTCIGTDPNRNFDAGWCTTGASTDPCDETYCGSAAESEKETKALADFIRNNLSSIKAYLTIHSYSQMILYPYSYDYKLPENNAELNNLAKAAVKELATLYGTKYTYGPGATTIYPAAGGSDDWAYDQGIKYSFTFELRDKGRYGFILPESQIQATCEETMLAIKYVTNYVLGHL
Assay: Inhibition of carboxypeptidase B in porcine pancreas using hippuryl-L-Arg as substrate preincubated with substrate for 2 mins followed by enzyme addition and measured after 5 mins by colorimetric method
Format: tissue-based

Question: How did the IC50 turn out when `CC[C@H](C)[C@@H]1NC(=O)[C@H](CC(C)C)N(C)C(=O)[C@H](C)NC(=O)[C@H](NC(=O)N[C@@H](CCCNC(=N)N)C(=O)O)CCCCNC1=O` was run?
Answer: 590 nM
